Legend:
Type in all cases: cell-based, mouse
TTFs = experiment: qPCR of cardiac genes in tail-tip fibroblasts; conditions: GHMT2m-TTFs treated with A83-01 for 4 weeks
Method: (§1) Hearts or skinned tails from adult C57BL6 mice were cut into small pieces with ˜1 mm diameter. The biopsies were seeded on a 10 cm culture dish and incubated with 10 mL of growth medium (DMEM/Hi glucose (Hyclone), 10% FBS (Gemini:), 1.1% Penicillin-Streptomycin (Gibco) and 1.1% GlutaMAX supplement (Gibco)) at 37° C. with 5% CO2. TTFs migrated out of the biopsies after 3 days. The media were changed every other day. Once the TTFs have reached a 70-80% confluence, the cells were harvested and stored for future use.
(§2) Cells were harvested in TRizol reagent (Ambion) for RNA isolation. RNA was extracted with the RNeasy® Plus Universal Mini Kit (Qiagen). RT-PCR was performed using the Superscript III first-strand synthesis system (Invitrogen). qPCR was performed using the SYBR® Green PCR master mix (Applied Biosystems) or StepOne™ Real-Time PCR Systems (Applied Biosystems). Primers are listed in Supplementary Table 1. Ryr2 (Mm00465877_m1) and Myh7 (Mm01319006_91) are Taqman probes (Life technologies).

[1] = test system: adult tail-tip fibroblasts (ATTFs); experiment: Counting of spontaneously beating cells in adult tail-tip fibroblasts; conditions: GHMT2m-ATTFs treated with A83-01 (0.5 μM)
Method: as §1
Fibroblasts were plated on tissue culture dishes pre-coated with SureCoat (Cellutron) at a density of ˜40 cells/mm^2 before transduction. The fibroblast growth medium was replaced with freshly made viral mixture containing polybrene (Sigma). Twenty-four hours later, fibroblasts were infected again with viral mixture containing polybrene. Twenty fours later, the viral medium was replaced with induction medium, composed of DMEM/199 (4:1) (Gibco), 10% FBS (Gemini), 5% horse serum(Gemini), antibiotics (Gibco), 1× non-essential amino acids (Gibco), 1× essential amino acids (Gibco), 1× B-27 (Gibco), 1× insulin-selenium-transferin (Gibco), 1× vitamin mixture (Gibco), and 1× sodium pyruvate (Gibco). Medium was changed every two-three days until cells were examined.
Cells in 60 mm dishes were examined under an EVOS® FL Color imaging system (Life Technologies) at 25° C. Beating cells were counted at a field with an area of 0.89 mm^2. Ten to fifteen fields in each dish were randomly chosen.

MEFs = experiment: Pro-fibrotic marker expression in infected MEFs (qPCR, Western blot, αSMA stress fiber immunostaining); conditions: A83-01 0.5 μM, day 7
Method: as §2
Samples were placed on ice and washed with ice-cold DPBS (Gibco) twice, then ice-cold lysis buffer (150 mM NaCl, 50 mM Tris-Cl pH7.4, 1 mM EDTA, 1% Triton, Complete mini tablet (Roche), 1 mM PMSF freshly added before use) was added to the cells. Cells were scraped and transferred to a pre-chilled 1.5 Eppendorf tube and frozen in liquid N2. Before used, the lysate was thawed on ice. The lysate was passed carefully through a 25 g needle for 5 times and then centrifuge at 14,000 rpm for 15 minutes at 4° C. The supernatant was transferred to a new 1.5 ml tube. The protein concentration was measured and 20 ug of lysate for each sample was loaded to SDSPAGE. Proteins were then transferred to PVDF. The PDVF membrane was blocked in 2.5% BSA in 1×TBST for 30 mins at room temperature (RT). The primary antibody was added in blocking buffer for 60 mins at RT. Wash in 1×TBST (20 mM Tris-Cl, pH7.4; 150 mM NaCl; 0.1% Tween20) three times at RT, each for 15 mins. The Secondary antibody was added in blocking buffer for 45 mins at RT. The membrane was washed in 1 XTBST for 15 mins, 1×TBST for 5 mins, then TBS (10 mM Tris-Cl pH8, 150 mM NaCl) for 5 mins. The membrane was resolved with Super Signal® West Pico (34080) or Femto (34095) substrate (Thermo Scientfic). The primary antibodies include: Snail (Cell Signaling, 3879S, 1:1000), Slug (Cell Signaling, 9585S, 1:1000), P-Smad2 (Cell Signaling, 23108P, 1:1000), Smad2 (Cell Signaling, 5339, 1:1000), αSMA (Santa Cruz, SC-32251, 1:10000), cTn1 (Phospho Solutions, 2010-TNI, 1:1000), cTnT (Sigma, T6277, 1:1000), and GAPDH (Ambion, AM4300). The secondary antibodies include: Goat Anti-Mouse IgG (H+L) (Southern Biotech, 1031-05, 1:2000). Goat Anti-Rabbit IgG (Life Technologies, 65-6120, 1:2000). For separation of α- and β-myosin heavy chain, samples were run by modified 6% SDS-PAGE (separating acrylamide/bis ratio 1:100; resolving gel buffer pH 9.0; running gel buffer pH 8.2; β-mercaptoethanol 600 μl/l inner gel buffer). Gels were run overnight at 4° C. and stained with BioSafe Coomassie Blue protein stain.
Cells were fixed in 2% PFA for 15 min on ice then washed with DPBS (Gibco) three times at RT. The cells were permeabilized in 0.5% Triton X-100 (made in PBS) for 20 min at RT. After washing the cells with DPBS (Gibco), cells were incubated with the primary antibody against α-actinin (Sigma A7811, 1:300), Connexin 43 (Sigma, C6219, 1:500), Troponin T (Thermo Scientific MS-245-P, 1:500), α-SMA (Santa Cruz Biotechnology, SC-32251, 1:800), Myl2 (Proteintech, 10906-1-AP, 1:200), or Myl7 (Proteintech, 17283-1-AP, 1:200) in 10% FBS(Gemini) in DPBS for 1 hour at RT. Cells were wash with DPBS three times, 5 min each. Cell were incubated with the secondary antibody (Alexa Fluor 555 Molecular Probes A21422, 1:1000) and Hoechest (Molecular Probes 33342, 1:5000) for 30 mins at RT.

## Cc1cccc(-c2nn(C(=S)Nc3ccccc3)cc2-c2ccnc3ccccc23)n1 [A83-01]
TTFs
  cardiomyocyte gene expression: Enhanced
[1]
  time by which spontaneously beating cells appeared: 2-3 weeks
[1]; by 4 weeks
  spontaneously contracting cells: about 4%
  spontaneously contracting cells per cm^2: approximately 300 cells per cm^2
MEFs; GHMT- and GHMT2m-infected cultures
  expression of Fn-EDA, Col1a1 and Col3a1, and formation of αSMA+ stress fibers: inhibited
MEFs; MEFs
  phosphorylation of Smad2: decreased

From patent publication US10519423B1, “High efficiency reprogramming of fibroblasts into cardiomyocytes” (The Regents of the University of Colorado, a body corporate, priority 2015, dated 2019)
